Data on 2 molecules can be found in patent US7026344B2, “Treating sickle cell disease” (priority 2000, dated 2006).

The test system of the test is human γ (Huγ) mRNA in K562 cells. The test is described as follows: γ globin mRNA induction in K562 cells by RNase protection assay. It counts as cell-based. Conditions: K562. As for the experimental part:
Cell Culture. K562 cells were grown in suspension cultures in RPMI-1640 containing 10% fetal bovine serum, penicillin (100 U/ml) and streptomycin (0.1 mg/ml in a humidified incubator at 37° C. in a 5%CO2/95% air atmosphere. The following experimental conditions were analyzed in triplicate with 2×10^6 cells per well: an untreated control, ZL dissolved in 0.1% dimethylsulfoximide (DMSO) at final concentrations of […], HU at […] and two positive controls hemin (50 mM) and sodium butyrate (NB) 2 mM. The K562 cells were induced for 72 hours then RNA isolated for further analysis. Cell viability was completed by 2% trypan blue exclusion at timnes 0 and 72 hours.
RNA Isolation. RNA was isolated using RNA Stat-60 (TEL-TEST “B”, Inc., Friendswood, Tex.) according to the manufacturer's instructions. In brief, cell pellets will be suspended in RNA Stat-60 (1 ml) and chloroform (200 μl), and the RNA extracted and precipitated with isopropanol.
RNase Protection Analysis. MRNA levels will be quantitated by RNase protection assay (RPA) with probes designed to yield protected fragments for human γ (Huγ)and the internal control glyceraldehydes-3-phosphate dehydrogenase (GAPD). Huγ mRNA levels were normalized to that of GAPD and compared to the untreated K562 cells. (Zar: Statistical Analysis, Englewood)
Several pharmacological hemoglobin F inducers such as HU, 5-azacytidine, erythropoietin, didox, and butyrate alter γ gene expression in culture. The induction of γ gene activity in culture is a good indicator of potential clinical usefulness. Therefore the capability of ZL to induce γ gene activity at the mRNA level was tested. K562 cells were cultured in ZL from 0 to 100 μM or HU (50μ to 100 μM) for 48 hours. Total cellular RNA was analyzed by RPA for γ mRNA levels. An increase in γ mRNA for ZL at 20 μM with a maximal response at 75 μM (FIG. 4A) was observed. The level of γ gene mRNA synthesis was quantitated relative to the internal control, CAPD. […] K562 cell viability was decreased 10% when measured using trypan blue exclusion at 75 μM and 100 μM concentrations for both ZL and HU. The level of γ gene induction was 3.9 fold and 10-fold for the positive controls NB and hemin, respectively.

Consider `CCCC(=O)[O-].[Na+]` [NB, sodium butyrate], for which the “level of γ gene induction” value (positive control NB 2 mM) was determined as 3.9 fold.

Regarding hemin, for the setting “positive control hemin (50 µM)”, the “level of γ gene induction” value was 10 fold.
